Data reported in PubChem BioAssay (NCI).
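Step 1: Grow cells in 96-well plates. Step 2: Expose to compound for 48 hours at 5 concentrations. Step 3: Interpolate endpoints linearly; if unreached, use highest concentration. At the GI50, growth is halved. The concentration for full growth arrest is given as TGI.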

How the values were obtained:
Assay in all cases: DTP human tumour cell line panel, 48 h
SK-OV-3 ovarian = test system: SK-OV-3 ovarian
SNB-75 CNS = test system: SNB-75 CNS
786-0 renal = test system: 786-0 renal
ACHN renal = test system: ACHN renal
KM12 colon = test system: KM12 colon
SN12C renal = test system: SN12C renal
M14 melanoma = test system: M14 melanoma
HOP-92 NSCLC = test system: HOP-92 NSCLC
SK-MEL-5 melanoma = test system: SK-MEL-5 melanoma
OVCAR-5 ovarian = test system: OVCAR-5 ovarian
LOX IMVI melanoma = test system: LOX IMVI melanoma
SNB-19 CNS = test system: SNB-19 CNS
TK-10 renal = test system: TK-10 renal
MDA-MB-231 breast = test system: MDA-MB-231 breast
NCI/ADR-RES ovarian = test system: NCI/ADR-RES ovarian
U251 CNS = test system: U251 CNS
MALME-3M melanoma = test system: MALME-3M melanoma
OVCAR-3 ovarian = test system: OVCAR-3 ovarian
T-47D breast = test system: T-47D breast
NCI-H522 lung = test system: NCI-H522 lung
MOLT-4 leukemia = test system: MOLT-4 leukemia
CAKI-1 renal = test system: CAKI-1 renal
RXF 393 renal = test system: RXF 393 renal
HCT-116 colon = test system: HCT-116 colon
UACC-257 melanoma = test system: UACC-257 melanoma
UO-31 renal = test system: UO-31 renal
SF-539 CNS = test system: SF-539 CNS
SF-268 CNS = test system: SF-268 CNS
EKVX NSCLC = test system: EKVX NSCLC
A549 NSCLC = test system: A549 NSCLC
OVCAR-4 ovarian = test system: OVCAR-4 ovarian
HCC-2998 colon = test system: HCC-2998 colon
SW-620 colon = test system: SW-620 colon
CCRF-CEM leukemia = test system: CCRF-CEM leukemia
PC-3 prostate = test system: PC-3 prostate
RPMI-8226 leukemia = test system: RPMI-8226 leukemia
NCI-H226 lung = test system: NCI-H226 lung
NCI-H460 lung = test system: NCI-H460 lung
HT29 colon = test system: HT29 colon
A498 renal = test system: A498 renal
DU-145 prostate = test system: DU-145 prostate
MDA-MB-435 = test system: MDA-MB-435
SK-MEL-28 melanoma = test system: SK-MEL-28 melanoma
UACC-62 melanoma = test system: UACC-62 melanoma
SR leukemia = test system: SR leukemia
OVCAR-8 ovarian = test system: OVCAR-8 ovarian
NCI-H23 lung = test system: NCI-H23 lung
SF-295 CNS = test system: SF-295 CNS
MCF7 breast = test system: MCF7 breast
HS 578T breast = test system: HS 578T breast
BT-549 breast = test system: BT-549 breast
K-562 leukemia = test system: K-562 leukemia
COLO 205 colon = test system: COLO 205 colon
SK-MEL-2 melanoma = test system: SK-MEL-2 melanoma
HCT-15 colon = test system: HCT-15 colon
HL-60(TB) leukemia = test system: HL-60(TB) leukemia
HOP-62 NSCLC = test system: HOP-62 NSCLC
IGROV1 ovarian = test system: IGROV1 ovarian

`CC1=NN(c2cccc(Cl)c2)C(=O)/C1=C\C=C\c1ccccc1` showed a GI50 (SK-OV-3 ovarian) of 3.21 µM, a TGI (SK-OV-3 ovarian) of 9.93 µM and a GI50 (SNB-75 CNS) of 7.12 µM. The TGI (SNB-75 CNS) was > 100 µM, the GI50 (786-0 renal) was 2.16 µM and the TGI (786-0 renal) was 4.65 µM. For the same compound, the GI50 (ACHN renal) was 1.79 µM, the TGI (ACHN renal) was 3.34 µM and the GI50 (KM12 colon) was 1.64 µM. For the same compound, the TGI (KM12 colon) was 3.1 µM, the GI50 (SN12C renal) was 2.44 µM and the TGI (SN12C renal) was 7.53 µM. The GI50 (M14 melanoma) was 1.7 µM, the TGI (M14 melanoma) was 3.57 µM and the GI50 (HOP-92 NSCLC) was 4.63 µM. It also gave a TGI (HOP-92 NSCLC) of 43 µM, a GI50 (SK-MEL-5 melanoma) of 2.27 µM and a TGI (SK-MEL-5 melanoma) of 5.76 µM. The GI50 (OVCAR-5 ovarian) was 2.81 µM, the TGI (OVCAR-5 ovarian) was 7.83 µM and the GI50 (LOX IMVI melanoma) was 1.48 µM. The TGI (LOX IMVI melanoma) was 3.15 µM, the GI50 (SNB-19 CNS) was 5.67 µM and the TGI (SNB-19 CNS) was > 100 µM. The GI50 (TK-10 renal) was 3.17 µM, the TGI (TK-10 renal) was 9.05 µM and the GI50 (MDA-MB-231 breast) was 2.27 µM. The TGI (MDA-MB-231 breast) was 7.47 µM, the GI50 (NCI/ADR-RES ovarian) was 3.4 µM and the TGI (NCI/ADR-RES ovarian) was > 100 µM. The GI50 (U251 CNS) was 1.78 µM, the TGI (U251 CNS) was 4.42 µM and the GI50 (MALME-3M melanoma) was 2.76 µM. The TGI (MALME-3M melanoma) was 9.19 µM, the GI50 (OVCAR-3 ovarian) was 2.18 µM and the TGI (OVCAR-3 ovarian) was 4.4 µM. For the same compound, the GI50 (T-47D breast) was 2.29 µM, the TGI (T-47D breast) was 39.5 µM and the GI50 (NCI-H522 lung) was 2.63 µM. For the same compound, the TGI (NCI-H522 lung) was 6.84 µM, the GI50 (MOLT-4 leukemia) was 3.17 µM and the TGI (MOLT-4 leukemia) was > 100 µM. It also gave a GI50 (CAKI-1 renal) of 1.89 µM, a TGI (CAKI-1 renal) of 4.49 µM and a GI50 (RXF 393 renal) of 2.12 µM. It also gave a TGI (RXF 393 renal) of 3.92 µM, a GI50 (HCT-116 colon) of 1.56 µM and a TGI (HCT-116 colon) of 3.09 µM. The GI50 (UACC-257 melanoma) was 2.13 µM, the TGI (UACC-257 melanoma) was 7.26 µM and the GI50 (UO-31 renal) was 1.62 µM. The TGI (UO-31 renal) was 3.49 µM, the GI50 (SF-539 CNS) was 2.5 µM and the TGI (SF-539 CNS) was 6.12 µM. For the same compound, the GI50 (SF-268 CNS) was 2.36 µM, the TGI (SF-268 CNS) was 6.91 µM and the GI50 (EKVX NSCLC) was 3.04 µM. For the same compound, the TGI (EKVX NSCLC) was > 100 µM, the GI50 (A549 NSCLC) was 16.4 µM and the TGI (A549 NSCLC) was > 100 µM. For the same compound, the GI50 (OVCAR-4 ovarian) was 3.37 µM, the TGI (OVCAR-4 ovarian) was > 100 µM and the GI50 (HCC-2998 colon) was 1.91 µM. The TGI (HCC-2998 colon) was 3.45 µM, the GI50 (SW-620 colon) was 1.74 µM and the TGI (SW-620 colon) was 3.44 µM. The GI50 (CCRF-CEM leukemia) was 3.14 µM, the TGI (CCRF-CEM leukemia) was > 100 µM and the GI50 (PC-3 prostate) was 2.93 µM. The TGI (PC-3 prostate) was > 100 µM, the GI50 (RPMI-8226 leukemia) was 2.91 µM and the TGI (RPMI-8226 leukemia) was 14.3 µM. It also gave a GI50 (NCI-H226 lung) of 2.68 µM, a TGI (NCI-H226 lung) of 7.62 µM and a GI50 (NCI-H460 lung) of 1.67 µM. The TGI (NCI-H460 lung) was 3.28 µM, the GI50 (HT29 colon) was 2.98 µM and the TGI (HT29 colon) was 7.4 µM. For the same compound, the GI50 (A498 renal) was 17.7 µM, the TGI (A498 renal) was > 100 µM and the GI50 (DU-145 prostate) was 2.91 µM. The TGI (DU-145 prostate) was 12.1 µM, the GI50 (MDA-MB-435) was 2.5 µM and the TGI (MDA-MB-435) was 7.37 µM. The GI50 (SK-MEL-28 melanoma) was 2.09 µM, the TGI (SK-MEL-28 melanoma) was 4.3 µM and the GI50 (UACC-62 melanoma) was 1.76 µM. The TGI (UACC-62 melanoma) was 3.87 µM, the GI50 (SR leukemia) was 2.36 µM and the TGI (SR leukemia) was > 100 µM. The GI50 (OVCAR-8 ovarian) was 2.63 µM, the TGI (OVCAR-8 ovarian) was 9.44 µM and the GI50 (NCI-H23 lung) was 2.32 µM. For the same compound, the TGI (NCI-H23 lung) was 6.13 µM, the GI50 (SF-295 CNS) was 3.17 µM and the TGI (SF-295 CNS) was 67.8 µM. For the same compound, the GI50 (MCF7 breast) was 1.12 µM, the TGI (MCF7 breast) was 18.8 µM and the GI50 (HS 578T breast) was 1.65 µM. The TGI (HS 578T breast) was 9.61 µM, the GI50 (BT-549 breast) was 1.64 µM and the TGI (BT-549 breast) was 3.17 µM. The GI50 (K-562 leukemia) was 2.88 µM, the TGI (K-562 leukemia) was > 100 µM and the GI50 (COLO 205 colon) was 2.36 µM. The TGI (COLO 205 colon) was 4.94 µM, the GI50 (SK-MEL-2 melanoma) was 3.85 µM and the TGI (SK-MEL-2 melanoma) was 16.7 µM. For the same compound, the GI50 (HCT-15 colon) was 2.27 µM, the TGI (HCT-15 colon) was 5.68 µM and the GI50 (HL-60(TB) leukemia) was 3.14 µM. For the same compound, the TGI (HL-60(TB) leukemia) was > 100 µM, the GI50 (HOP-62 NSCLC) was 3.18 µM and the TGI (HOP-62 NSCLC) was 11.1 µM. For the same compound, the GI50 (IGROV1 ovarian) was 1.67 µM and the TGI (IGROV1 ovarian) was 4.23 µM.
